Measured values as given in patent US20050124658A1, “Decahydronaphtho[2,3-c]furan derivatives” (Segami Chemical Research Center, priority 2001, published 2005).

Structure (SMILES)	melting point [°C]
O=C1OCC2C3OC(C4=C3CCCC4)C12 (stereo not shown)	105 to 106
O=C1OCC2C3OC(C4CCCCC43)C12 (stereo not shown)	90 to 91
O=C1OCC2C1CC1CCCCC1C2O (stereo not shown) [Example 5, Decahydro-4-hydoxy-naphtho[2,3-c]furan-1(3H)-one]	149 to 150

Further lines, results first:

melting point [°C]	Structure (SMILES)
75 to 77	COC1OCC2C(O)C3CCCCC3CC12 (stereo not shown) [Example 6, Dodecahydro-1-methoxy-naphtho[2,3-c]furan-4-ol]
78 to 79	COC1OCC2C(=O)C3CCCCC3CC12 (stereo not shown) [Example 7, Decahydro-1-methoxy-naphtho[2,3-c]furan-4(1H)-one]
53 to 55	C=C1C2CCCCC2CC2C(OC)OCC12 (stereo not shown) [Example 8, Dodecahydro-1-methoxy-4-methylenenaphtho[2,3-c]furan]
107 to 108	COC1OCC2C1CC1CCCCC1C2COC(=O)c1ccc(Br)cc1 (stereo not shown) [Example 10, Dodecahydro-4-(4-bromophenyl)carboxymethyl-1-methoxynaphtho[2,3-c]furan]
